Measured values taken from PubChem BioAssay (NCI).
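Interpolation was linear, between the two tested concentrations surrounding the appropriate level; five concentrations were tested over 48 hours in 96-well plates. Definition used: TGI = concentration required for complete inhibition of growth.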

What was measured:
Assay in all cases: NCI tumour cell line growth inhibition, 48 h
DMS 273 small cell lung = test system: DMS 273 small cell lung
HOP-18 NSCLC = test system: HOP-18 NSCLC
KM20L2 colon = test system: KM20L2 colon
P388 leukemia = test system: P388 leukemia
P388/ADR leukemia = test system: P388/ADR leukemia
SN12K1 renal = test system: SN12K1 renal
SNB-78 CNS = test system: SNB-78 CNS
LXFL 529 NSCLC = test system: LXFL 529 NSCLC
XF 498 CNS = test system: XF 498 CNS

| SMILES | TGI (DMS 273 small cell lung) [µM] | TGI (HOP-18 NSCLC) [µM] | TGI (KM20L2 colon) [µM] | TGI (P388 leukemia) [µM] | TGI (P388/ADR leukemia) [µM] | TGI (SN12K1 renal) [µM] | TGI (SNB-78 CNS) [µM] | TGI (LXFL 529 NSCLC) [µM] | TGI (XF 498 CNS) [µM] |
| --- | --- | --- | --- | --- | --- | --- | --- | --- | --- |
| COc1cccc(-c2nc3c(C(=O)NCCN(C)C)cccc3[nH]2)c1 | 39.7 | 62.6 | 39 | 22.2 | 41.9 | 30.7 | > 100 |  |  |
| O=S(O)c1cc(Cl)cc(Cl)c1O |  |  |  |  |  |  | > 100 | > 100 | > 100 |
